Reference: BigSolDB 2.1

`CN1CCOC(c2ccccc2)c2ccccc2C1.Cl` (stereo not drawn) showed a solubility (mole fraction) (in acetone, 273.15 K) of 7.2e-05, a solubility (mole fraction) (in acetone, 278.15 K) of 8.7e-05 and a solubility (mole fraction) (in acetone, 283.15 K) of 0.000107. The solubility (mole fraction) (in acetone, 288.15 K) was 0.000128, the solubility (mole fraction) (in acetone, 293.15 K) was 0.000151 and the solubility (mole fraction) (in acetone, 298.15 K) was 0.000182. For the same molecule, the solubility (mole fraction) (in acetone, 303.15 K) was 0.000215, the solubility (mole fraction) (in acetone, 308.15 K) was 0.000265 and the solubility (mole fraction) (in acetone, 313.15 K) was 0.000312. For the same molecule, the solubility (mole fraction) (in acetone, 318.15 K) was 0.000373, the solubility (mole fraction) (in acetone, 323.15 K) was 0.000445 and the solubility (mole fraction) (in ethanol, 273.15 K) was 0.00136. The solubility (mole fraction) (in ethanol, 278.15 K) was 0.00163, the solubility (mole fraction) (in ethanol, 283.15 K) was 0.00198 and the solubility (mole fraction) (in ethanol, 288.15 K) was 0.00247. It also gave a solubility (mole fraction) (in ethanol, 293.15 K) of 0.0029, a solubility (mole fraction) (in ethanol, 298.15 K) of 0.00337 and a solubility (mole fraction) (in ethanol, 303.15 K) of 0.00402. The solubility (mole fraction) (in ethanol, 308.15 K) was 0.00473, the solubility (mole fraction) (in ethanol, 313.15 K) was 0.00559 and the solubility (mole fraction) (in ethanol, 318.15 K) was 0.00654. The solubility (mole fraction) (in ethanol, 323.15 K) was 0.00795, the solubility (mole fraction) (in isobutanol, 273.15 K) was 0.000415 and the solubility (mole fraction) (in isobutanol, 278.15 K) was 0.000524. For the same molecule, the solubility (mole fraction) (in isobutanol, 283.15 K) was 0.000635, the solubility (mole fraction) (in isobutanol, 288.15 K) was 0.000797 and the solubility (mole fraction) (in isobutanol, 293.15 K) was 0.000955. It also gave a solubility (mole fraction) (in isobutanol, 298.15 K) of 0.00116, a solubility (mole fraction) (in isobutanol, 303.15 K) of 0.00144 and a solubility (mole fraction) (in isobutanol, 308.15 K) of 0.00175. The solubility (mole fraction) (in isobutanol, 313.15 K) was 0.00214, the solubility (mole fraction) (in isobutanol, 318.15 K) was 0.0026 and the solubility (mole fraction) (in isobutanol, 323.15 K) was 0.00321. For the same molecule, the solubility (mole fraction) (in isopropanol, 273.15 K) was 0.000136, the solubility (mole fraction) (in isopropanol, 278.15 K) was 0.000167 and the solubility (mole fraction) (in isopropanol, 283.15 K) was 0.000206. The solubility (mole fraction) (in isopropanol, 288.15 K) was 0.000251, the solubility (mole fraction) (in isopropanol, 293.15 K) was 0.00032 and the solubility (mole fraction) (in isopropanol, 298.15 K) was 0.000407. For the same molecule, the solubility (mole fraction) (in isopropanol, 303.15 K) was 0.000494, the solubility (mole fraction) (in isopropanol, 308.15 K) was 0.000608 and the solubility (mole fraction) (in isopropanol, 313.15 K) was 0.000752. For the same molecule, the solubility (mole fraction) (in isopropanol, 318.15 K) was 0.000935, the solubility (mole fraction) (in isopropanol, 323.15 K) was 0.00114 and the solubility (mole fraction) (in methanol, 273.15 K) was 0.00515. The solubility (mole fraction) (in methanol, 278.15 K) was 0.00566, the solubility (mole fraction) (in methanol, 283.15 K) was 0.00632 and the solubility (mole fraction) (in methanol, 288.15 K) was 0.00692. For the same molecule, the solubility (mole fraction) (in methanol, 293.15 K) was 0.00764, the solubility (mole fraction) (in methanol, 298.15 K) was 0.00856 and the solubility (mole fraction) (in methanol, 303.15 K) was 0.00951. For the same molecule, the solubility (mole fraction) (in methanol, 308.15 K) was 0.0105, the solubility (mole fraction) (in methanol, 313.15 K) was 0.0115 and the solubility (mole fraction) (in methanol, 318.15 K) was 0.0128. For the same molecule, the solubility (mole fraction) (in methanol, 323.15 K) was 0.0143, the solubility (mole fraction) (in n-butanol, 273.15 K) was 0.000205 and the solubility (mole fraction) (in n-butanol, 278.15 K) was 0.000245. For the same molecule, the solubility (mole fraction) (in n-butanol, 283.15 K) was 0.000287, the solubility (mole fraction) (in n-butanol, 288.15 K) was 0.000369 and the solubility (mole fraction) (in n-butanol, 293.15 K) was 0.000463. The solubility (mole fraction) (in n-butanol, 298.15 K) was 0.000605, the solubility (mole fraction) (in n-butanol, 303.15 K) was 0.000776 and the solubility (mole fraction) (in n-butanol, 308.15 K) was 0.000986. The solubility (mole fraction) (in n-butanol, 313.15 K) was 0.00125, the solubility (mole fraction) (in n-butanol, 318.15 K) was 0.00159 and the solubility (mole fraction) (in n-butanol, 323.15 K) was 0.00198. It also gave a solubility (mole fraction) (in n-propanol, 273.15 K) of 0.000291, a solubility (mole fraction) (in n-propanol, 278.15 K) of 0.000328 and a solubility (mole fraction) (in n-propanol, 283.15 K) of 0.000387. The solubility (mole fraction) (in n-propanol, 288.15 K) was 0.000495, the solubility (mole fraction) (in n-propanol, 293.15 K) was 0.000652 and the solubility (mole fraction) (in n-propanol, 298.15 K) was 0.000836. The solubility (mole fraction) (in n-propanol, 303.15 K) was 0.00106, the solubility (mole fraction) (in n-propanol, 308.15 K) was 0.00134 and the solubility (mole fraction) (in n-propanol, 313.15 K) was 0.0017. The solubility (mole fraction) (in n-propanol, 318.15 K) was 0.00213, the solubility (mole fraction) (in n-propanol, 323.15 K) was 0.00267 and the solubility (mole fraction) (in water, 273.15 K) was 0.000951. The solubility (mole fraction) (in water, 278.15 K) was 0.00106, the solubility (mole fraction) (in water, 283.15 K) was 0.00124 and the solubility (mole fraction) (in water, 288.15 K) was 0.00144. The solubility (mole fraction) (in water, 293.15 K) was 0.00167, the solubility (mole fraction) (in water, 298.15 K) was 0.00199 and the solubility (mole fraction) (in water, 303.15 K) was 0.00234. For the same molecule, the solubility (mole fraction) (in water, 308.15 K) was 0.00273, the solubility (mole fraction) (in water, 313.15 K) was 0.00317 and the solubility (mole fraction) (in water, 318.15 K) was 0.00369. The solubility (mole fraction) (in water, 323.15 K) was 0.00426.
